One series deals with T1, OATP1B3 (Homo sapiens, UniProt Q9NPD5).
T1 sequence (Q9NPD5 1-702): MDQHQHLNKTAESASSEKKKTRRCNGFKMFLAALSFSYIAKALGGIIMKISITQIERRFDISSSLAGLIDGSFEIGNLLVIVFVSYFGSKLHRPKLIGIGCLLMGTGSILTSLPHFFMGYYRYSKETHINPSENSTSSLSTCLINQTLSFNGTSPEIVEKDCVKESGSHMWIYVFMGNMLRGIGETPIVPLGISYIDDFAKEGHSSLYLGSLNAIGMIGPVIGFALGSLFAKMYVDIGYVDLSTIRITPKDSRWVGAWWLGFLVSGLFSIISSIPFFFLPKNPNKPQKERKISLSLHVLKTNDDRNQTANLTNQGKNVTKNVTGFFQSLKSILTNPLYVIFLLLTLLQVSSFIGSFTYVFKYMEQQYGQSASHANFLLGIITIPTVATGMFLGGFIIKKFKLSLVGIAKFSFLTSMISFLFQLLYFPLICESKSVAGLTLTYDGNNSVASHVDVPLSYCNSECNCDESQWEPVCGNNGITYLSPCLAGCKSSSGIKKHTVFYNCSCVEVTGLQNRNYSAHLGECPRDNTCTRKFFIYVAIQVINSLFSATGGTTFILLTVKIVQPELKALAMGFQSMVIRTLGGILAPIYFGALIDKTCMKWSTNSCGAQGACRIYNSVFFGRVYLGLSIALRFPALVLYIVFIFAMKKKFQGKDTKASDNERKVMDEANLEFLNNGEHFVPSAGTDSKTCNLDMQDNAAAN
Put plainly: OATP1B3 uptake assay (pyranine) in overexpressing A431 cells.

A further series concerns the target T2, ABCG2 (Homo sapiens, UniProt Q9UNQ0).
T2 sequence (Q9UNQ0 1-655): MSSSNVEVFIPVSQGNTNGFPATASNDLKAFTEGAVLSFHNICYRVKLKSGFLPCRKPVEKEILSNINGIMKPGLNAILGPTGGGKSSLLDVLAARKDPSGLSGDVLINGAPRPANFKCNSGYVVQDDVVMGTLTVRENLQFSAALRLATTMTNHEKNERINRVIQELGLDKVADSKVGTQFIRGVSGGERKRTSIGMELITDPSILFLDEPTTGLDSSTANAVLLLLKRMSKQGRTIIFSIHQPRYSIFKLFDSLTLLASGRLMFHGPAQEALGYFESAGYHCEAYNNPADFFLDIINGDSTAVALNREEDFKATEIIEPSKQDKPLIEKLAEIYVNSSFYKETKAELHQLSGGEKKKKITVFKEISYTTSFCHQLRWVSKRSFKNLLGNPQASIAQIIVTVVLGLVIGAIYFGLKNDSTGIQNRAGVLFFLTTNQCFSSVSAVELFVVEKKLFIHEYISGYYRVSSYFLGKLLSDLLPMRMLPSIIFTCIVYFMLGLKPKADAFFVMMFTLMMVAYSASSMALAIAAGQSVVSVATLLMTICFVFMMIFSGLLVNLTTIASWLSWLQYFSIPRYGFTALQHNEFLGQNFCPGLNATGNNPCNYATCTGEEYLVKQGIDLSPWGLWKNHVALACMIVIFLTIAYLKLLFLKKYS
Put plainly: ABCG2 vesicular transport (lucifer yellow), HEK293 inverted membrane vesicles. The following applies: up to 200 μM.

Another series has as its target T3, OATP1A2 (Homo sapiens, UniProt P46721).
T3 sequence (P46721 1-670): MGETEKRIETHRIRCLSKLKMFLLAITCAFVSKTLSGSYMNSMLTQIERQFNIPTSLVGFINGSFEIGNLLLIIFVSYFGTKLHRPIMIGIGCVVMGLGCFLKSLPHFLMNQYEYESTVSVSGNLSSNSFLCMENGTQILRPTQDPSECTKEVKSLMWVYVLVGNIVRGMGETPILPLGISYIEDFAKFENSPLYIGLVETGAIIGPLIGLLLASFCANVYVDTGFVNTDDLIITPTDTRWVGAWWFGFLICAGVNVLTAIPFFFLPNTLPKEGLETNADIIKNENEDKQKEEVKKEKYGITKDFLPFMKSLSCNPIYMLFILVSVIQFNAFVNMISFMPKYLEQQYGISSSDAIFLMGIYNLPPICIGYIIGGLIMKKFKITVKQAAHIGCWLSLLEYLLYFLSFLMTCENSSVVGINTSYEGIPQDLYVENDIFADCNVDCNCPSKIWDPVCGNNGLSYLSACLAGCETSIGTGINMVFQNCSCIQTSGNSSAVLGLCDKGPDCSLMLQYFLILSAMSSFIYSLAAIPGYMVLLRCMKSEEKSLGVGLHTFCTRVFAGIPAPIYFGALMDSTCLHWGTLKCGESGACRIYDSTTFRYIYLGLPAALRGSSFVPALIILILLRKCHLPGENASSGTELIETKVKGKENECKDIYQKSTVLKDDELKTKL
The series is described as follows: OATP1A2 uptake assay (SR101) in overexpressing A431 cells. How it is done: To study the function of OATPs, we used A431 cells overexpressing OATP1A2, OATP1B1, OATP1B3, or OATP2B1 and mock-transfected A431 cells, generated as previously described, as controls. The interactions between OATPs and the test compounds were studied in a microplate-based indirect assay by employing fluorescent dye substrates: pyranine for OATP1B1, OATP1B3, OATP2B1 and sulforhodamine 101 for OATP1A2 [44, 45]. Briefly, OATP-overexpressing A431 cells and mock-transfected A431 cells were seeded on 96-well plates (8 × 10^4 cells/well). The next day, the cells were washed three times with phosphate buffered saline (PBS, pH 7.4) and preincubated with 50 μL uptake buffer (125 mM NaCl, 4.8 mM KCl, 1.2 mM CaCl2, 1.2 mM KH2PO4, 12 mM MgSO4, 25 mM MES (2-(Nmorpholino) ethanesulfonic acid, and 5.6 mM glucose, pH 5.5 for OATP2B1 and pH 7.4 for OATP1A2, OATP1B1, or OATP1B3) at 37 °C for 5 min in the presence or absence of the tested compounds. The reaction was started by the addition of a final concentration of 20 μM pyranine (OATP1B1, OATP1B3, OATP2B1) or 0.5 μM sulforhodamine 101 (OATP1A2). After incubation at 37 °C for 10 min, the reactions were stopped and the cells were washed three times with ice-cold PBS. Fluorescence was measured using an Enspire plate reader (Perkin Elmer, Waltham, MA, USA) (Ex/Em: 460/510 nm (pyranine) or 586/605 nm (sulforhodamine 101), and OATP-dependent transport activity was determined by subtracting the fluorescence measured in mock-transfected cells.

For the next series, the target named is ABCB1 (Homo sapiens, UniProt P08183). Put plainly: ABCB1 vesicular transport (NMQ), HEK293 inverted membrane vesicles. The following applies: for effect on ABCB1 NMQ vesicular transport: up to 200 μM.

Each structure is given as a SMILES string. Entries after “also recorded” stand apart in the source; their conditions may differ. Read-outs that look alike come from different tables or passages of the source.

This is an account of results in publication PMC10379611 (International Journal of Molecular Sciences, 2023).

Chain of ABCB1 (P08183 whole entry): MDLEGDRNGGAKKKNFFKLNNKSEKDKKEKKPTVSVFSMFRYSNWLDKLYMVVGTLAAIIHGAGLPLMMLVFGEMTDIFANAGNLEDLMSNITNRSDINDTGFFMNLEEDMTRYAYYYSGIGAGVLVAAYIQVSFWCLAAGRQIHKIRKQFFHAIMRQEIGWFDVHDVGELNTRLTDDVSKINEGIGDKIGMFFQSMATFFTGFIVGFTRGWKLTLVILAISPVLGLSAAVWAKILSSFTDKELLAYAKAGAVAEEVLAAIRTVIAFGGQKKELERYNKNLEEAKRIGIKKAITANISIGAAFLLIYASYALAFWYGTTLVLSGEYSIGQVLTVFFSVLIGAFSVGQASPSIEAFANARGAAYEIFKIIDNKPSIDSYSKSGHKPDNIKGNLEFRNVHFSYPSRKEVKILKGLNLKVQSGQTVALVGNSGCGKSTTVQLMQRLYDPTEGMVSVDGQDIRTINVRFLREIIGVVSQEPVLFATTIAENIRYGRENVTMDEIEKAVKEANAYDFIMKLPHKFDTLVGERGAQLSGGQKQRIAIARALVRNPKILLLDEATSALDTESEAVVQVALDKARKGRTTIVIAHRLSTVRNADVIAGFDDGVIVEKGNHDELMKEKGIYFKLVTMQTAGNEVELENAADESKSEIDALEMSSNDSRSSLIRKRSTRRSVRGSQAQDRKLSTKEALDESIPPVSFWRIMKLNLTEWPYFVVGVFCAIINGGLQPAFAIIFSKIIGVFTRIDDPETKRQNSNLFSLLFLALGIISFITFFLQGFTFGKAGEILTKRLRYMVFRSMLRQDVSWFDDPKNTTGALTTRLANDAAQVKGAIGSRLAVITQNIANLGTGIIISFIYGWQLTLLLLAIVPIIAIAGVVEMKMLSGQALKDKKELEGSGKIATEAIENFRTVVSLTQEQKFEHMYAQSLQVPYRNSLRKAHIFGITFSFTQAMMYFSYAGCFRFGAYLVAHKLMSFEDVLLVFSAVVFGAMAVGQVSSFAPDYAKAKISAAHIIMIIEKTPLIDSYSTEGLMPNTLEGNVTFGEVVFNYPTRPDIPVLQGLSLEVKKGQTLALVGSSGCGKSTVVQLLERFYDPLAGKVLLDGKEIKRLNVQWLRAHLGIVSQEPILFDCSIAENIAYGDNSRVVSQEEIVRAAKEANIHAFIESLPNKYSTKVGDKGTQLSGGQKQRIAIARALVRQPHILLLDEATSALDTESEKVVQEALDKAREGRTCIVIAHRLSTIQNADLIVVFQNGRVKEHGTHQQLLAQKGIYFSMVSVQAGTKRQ
Method for ABCG2: ABCB1, ABCG2, and ABCC4 HEK293 membrane vesicles were prepared by Solvo Biotechnology, Budapest. The total protein content of membrane vesicle preparations was determined using the Lowry quantitation method and 30 µg (ABCG2) or 50 µg (ABCB1 and ABCC4) total protein/sample was used for the measurements. For ABCG2 vesicular transport, the fluorescent probe Lucifer yellow (LY) was present in the mixture at 5 μM final concentration. […] Uptake of the probe substrates into the inverted membrane vesicles was measured at 37 °C (ABCG2, ABCB1) or at 32 °C (ABCC4) for 10 min (ABCG2), 5 min (ABCB1), or 1.5 min (ABCC4) in the presence or absence of 4 mM Mg-ATP, in 75 μL final volume of the media (0.04 M MOPS-TRIS pH 7.2, 56 mM KCl, 6 mM MgCl2). The known reference inhibitors of the transporters (1 µM Ko143 for ABCG2, 50 µM Verapamil for ABCB1, and 150 µM MK571 for ABCC4) served as controls. Each test compound was dissolved in DMSO and a 0.75 µL volume was added to the samples. A DMSO solvent control was used in each experiment. The transport was stopped by the addition of ice-cold wash buffer to the samples, then rapidly filtered (MSFBN6B, Millipore, Burlington, MA, USA). Filters were washed with ice-cold wash buffer (0.04 M MOPS-TRIS pH 7.2, 70 mM KCl). For LY, vesicles retained on the filters were dissolved in 10% SDS and transferred into a 96-well microplate. After the addition of DMSO as a stabilizer, fluorescence was measured using a plate reader at 427/535 nm (Victor X3 Enspire Perkin-Elmer, Waltham, MA, USA). When radiolabeled compounds were used as substrates, radioactivity retained on the filter was measured by liquid scintillation counting in Optiphase HiSafe liquid (Perkin Elmer MicroBeta2 liquid scintillation counter, Perkin Elmer, Waltham, MA, USA). ATP-dependent transport was calculated by subtracting the values obtained in the presence of AMP from those obtained in the presence of ATP.

Consider `CC(C)(C)[C@H](NC(=O)C(F)(F)F)C(=O)N1C[C@H]2[C@@H]([C@H]1C(=O)N[C@H](C#N)C[C@@H]1CCNC1=O)C2(C)C` [Nirmatrelvir], for which the “inhibition of OATP1B3 by Nirmatrelvir alone” value against OATP1B3 (at 20 μM) is “only a minor inhibitory effect”. For the same compound, the “effect on ABCG2 lucifer yellow vesicular transport” value at ABCG2 is “not affected; also recorded: negligible effect”. Also, the “inhibition of OATP1A2 by Nirmatrelvir alone” value against OATP1A2 (at 20 μM) is recorded as “only a minor inhibitory effect”. The compound also registered an IC50 at 10 min against OATP1A2 (human, pH 7.4) of 79.5 µM. At ABCB1 (NIR in combination with RIT), the “additional effect of Nirmatrelvir on ABCB1 inhibition by Ritonavir” value was “no additional effect”. For the same compound, on ABCB1, the “effect on ABCB1 NMQ vesicular transport” value is recorded as “moderate inhibitory effect; also recorded: only a weak inhibitory effect”.

Regarding `CC(C)C(=O)OC[C@H]1O[C@@H](n2ccc(NO)nc2=O)[C@H](O)[C@@H]1O` [EIDD-2801, Molnupiravir], the IC50 against OATP1B3 and against OATP1A2 was more than 200 µM throughout. Also, the inhibition at 10 min, 200 µM against OATP1B3 (human, A431 cells overexpressing OATP1B3, pH 7.4, probe pyranine (20 μM)) fell in the range of 20 to 40%; against OATP1A2 (human, A431 cells overexpressing OATP1A2, pH 7.4, probe sulforhodamine 101 (0.5 μM)), 20 to 40%. For the same compound, the “effect on ABCG2 lucifer yellow vesicular transport” value on ABCG2 is reported as “neither the function of ABCB1 nor that of ABCG2 was altered”. In addition, the “effect on ABCB1 NMQ vesicular transport” value at ABCB1 is “neither the function of ABCB1 nor that of ABCG2 was altered”.

Take `O=c1nc(NO)ccn1[C@@H]1O[C@H](CO)[C@@H](O)[C@H]1O` [EIDD-1931]: the “maximum inhibition of OATP1B3” value at OATP1B3 (at 200 μM, pyranine) is 20–40%. Further, the IC50 on OATP1B3 (read-out: estimated IC50, OATP1B3, pyranine substrate, A431 cells) was more than 200 µM; on OATP1A2 (read-out: estimated IC50, OATP1A2, SR101 substrate, A431 cells), more than 200 µM. Moreover, the “effect on ABCG2 lucifer yellow vesicular transport” value at ABCG2 was “neither the function of ABCB1 nor that of ABCG2 was altered”. For the same compound, on OATP1A2 (at 200 μM, SR101), the “maximum inhibition of OATP1A2” value was 20–40%. Moreover, the “effect on ABCB1 NMQ vesicular transport” value on ABCB1 is listed as “neither the function of ABCB1 nor that of ABCG2 was altered”.
